Assay results as given in article PMC7758046, “Novel piperazine–chalcone hybrids and related pyrazoline analogues targeting VEGFR-2 kinase; design, synthesis, molecular docking studies, and anticancer evaluation” (Journal of Enzyme Inhibition and Medicinal Chemistry, 2020).

Experiments:
Assay in all cases: NCI-60 single-dose anticancer screen
Assay type in all cases: cell-based, human
UACC-257 (Melanoma) = conditions: 10 µM single dose
Procedure: (§1) Six compounds were selected by the NCI, according to NCI’s DTP selection guidelines, for evaluation of their anticancer activity at a single-dose of 10 µM against 60 human tumours cell lines.
(§2) In vitro cytotoxicity was performed in NCI according to reported method.

[1] = tested on: NCI-H322M (Non-small cell lung cancer); conditions: 10 µM single dose
Procedure: as §1, §2

SF-295 (CNS cancer) = conditions: 10 µM single dose
Procedure: as §1, §2

MDA-MB-435 (Melanoma) = conditions: 10 µM single dose
Procedure: as §1, §2

OVCAR-3 (Ovarian cancer) = conditions: 10 µM single dose
Procedure: as §1, §2

SK-MEL-5 (Melanoma) = conditions: 10 µM single dose
Procedure: as §1, §2

TK-10 (Renal cancer) = conditions: 10 µM single dose
Procedure: as §1, §2

MALME-3M (Melanoma) = conditions: 10 µM single dose
Procedure: as §1, §2

OVCAR-4 (Ovarian cancer) = conditions: 10 µM single dose
Procedure: as §1, §2

[2] = tested on: HOP-62 (Non-small cell lung cancer); conditions: 10 µM single dose
Procedure: as §1, §2

CAKI-1 (Renal cancer) = conditions: 10 µM single dose
Procedure: as §1, §2

SN12C (Renal cancer) = conditions: 10 µM single dose
Procedure: as §1, §2

[3] = tested on: EKVX (Non-small cell lung cancer); conditions: 10 µM single dose
Procedure: as §1, §2

SF-539 (CNS cancer) = conditions: 10 µM single dose
Procedure: as §1, §2

OVCAR-8 (Ovarian cancer) = conditions: 10 µM single dose
Procedure: as §1, §2

UO-31 (Renal cancer) = conditions: 10 µM single dose
Procedure: as §1, §2

ACHN (Renal cancer) = conditions: 10 µM single dose
Procedure: as §1, §2

CCRF-CEM (Leukaemia) = conditions: 10 µM single dose
Procedure: as §1, §2

UACC-62 (Melanoma) = conditions: 10 µM single dose
Procedure: as §1, §2

M14 (Melanoma) = conditions: 10 µM single dose
Procedure: as §1, §2

MOLT-4 (Leukaemia) = conditions: 10 µM single dose
Procedure: as §1, §2

RXF 393 (Renal cancer) = conditions: 10 µM single dose
Procedure: as §1, §2

SR (Leukaemia) = conditions: 10 µM single dose
Procedure: as §1, §2

PC-3 (Prostate cancer) = conditions: 10 µM single dose
Procedure: as §1, §2

[4] = tested on: NCI/ADR-RES (Ovarian cancer); conditions: 10 µM single dose
Procedure: as §1, §2

HCC-2998 (Colon cancer) = conditions: 10 µM single dose
Procedure: as §1, §2

COLO 205 (Colon cancer) = conditions: 10 µM single dose
Procedure: as §1, §2

[5] = tested on: NCI-H23 (Non-small cell lung cancer); conditions: 10 µM single dose
Procedure: as §1, §2

[6] = tested on: MDA-MB-468 (Breast cancer); conditions: 10 µM single dose
Procedure: as §1, §2

U251 (CNS cancer) = conditions: 10 µM single dose
Procedure: as §1, §2

SK-MEL-2 (Melanoma) = conditions: 10 µM single dose
Procedure: as §1, §2

HT29 (Colon cancer) = conditions: for cell growth promotion: 10 µM single dose; for inhibition at 10 µM: Homo sapiens, HT-29, 10 µM single dose, read-out: cell growth inhibition
Procedure: as §1, §2

SK-MEL-28 (Melanoma) = conditions: 10 µM single dose
Procedure: as §1, §2

[7] = tested on: NCI-H522 (Non-small cell lung cancer); conditions: 10 µM single dose
Procedure: as §1, §2

[8] = tested on: A549/ATCC (Non-small cell lung cancer); conditions: 10 µM single dose
Procedure: as §1, §2

KM12 (Colon cancer) = conditions: 10 µM single dose
Procedure: as §1, §2

RPMI-8226 (Leukaemia) = conditions: 10 µM single dose
Procedure: as §1, §2

SW-620 (Colon cancer) = conditions: 10 µM single dose
Procedure: as §1, §2

A498 (Renal cancer) = conditions: 10 µM single dose
Procedure: as §1, §2

SNB-19 (CNS cancer) = conditions: 10 µM single dose
Procedure: as §1, §2

HS 578T (Breast cancer) = conditions: 10 µM single dose
Procedure: as §1, §2

MCF7 (Breast cancer) = conditions: 10 µM single dose
Procedure: as §1, §2

SF-268 (CNS cancer) = conditions: 10 µM single dose
Procedure: as §1, §2

SNB-75 (CNS cancer) = conditions: 10 µM single dose
Procedure: as §1, §2

K-562 (Leukaemia) = conditions: for cell growth promotion: 10 µM single dose; for inhibition at 10 µM: Homo sapiens, K562, 10 µM single dose, read-out: cell growth inhibition
Procedure: as §1, §2

OVCAR-5 (Ovarian cancer) = conditions: 10 µM single dose
Procedure: as §1, §2

[9] = tested on: NCI-H460 (Non-small cell lung cancer); conditions: 10 µM single dose
Procedure: as §1, §2

[10] = Homo sapiens, read-out: cell growth inhibition

N#Cc1ccccc1C1CC(c2ccc(N3CCNCC3)cc2)=NN1 (stereo not drawn) [VIa, 2-(3-(4-(Piperazin-1-yl)phenyl)-4,5-dihydro-1H-pyrazol-5-yl)benzonitrile]
cell growth promotion (UACC-257 (Melanoma)): 85.21%
cell growth promotion [1]: 98.35%
cell growth promotion (SF-295 (CNS cancer)): 103.66%
cell growth promotion (MDA-MB-435 (Melanoma)): 102.57%
cell growth promotion (OVCAR-3 (Ovarian cancer)): 101.64%
cell growth promotion (SK-MEL-5 (Melanoma)): 93.27%
cell growth promotion (TK-10 (Renal cancer)): 130.17%
cell growth promotion (MALME-3M (Melanoma)): 106.87%
cell growth promotion (OVCAR-4 (Ovarian cancer)): 101.39%
cell growth promotion [2]: 86.44%
cell growth promotion (CAKI-1 (Renal cancer)): 83.12%
cell growth promotion (SN12C (Renal cancer)): 98.09%
cell growth promotion [3]: 101.50%
cell growth promotion (SF-539 (CNS cancer)): 105.04%
cell growth promotion (OVCAR-8 (Ovarian cancer)): 90.36%
cell growth promotion (UO-31 (Renal cancer)): 86.28%
cell growth promotion (ACHN (Renal cancer)): 104.24%
cell growth promotion (CCRF-CEM (Leukaemia)): 71.21%
inhibition at 10 µM (CCRF-CEM (Leukaemia); [10]): 28.8%
cell growth promotion (UACC-62 (Melanoma)): 88.47%
cell growth promotion (M14 (Melanoma)): 104.47%
cell growth promotion (MOLT-4 (Leukaemia)): 96.02%
cell growth promotion (RXF 393 (Renal cancer)): 108.30%
cell growth promotion (SR (Leukaemia)): 94.43%
inhibition at 10 µM (SR (Leukaemia); [10]): 5.57%
cell growth promotion (PC-3 (Prostate cancer)): 83.35%
cell growth promotion [4]: 102.72%
cell growth promotion (HCC-2998 (Colon cancer)): 96.75%
cell growth promotion (COLO 205 (Colon cancer)): 113.04%
cell growth promotion [5]: 91.73%
cell growth promotion [6]: 101.01%
cell growth promotion (U251 (CNS cancer)): 94.54%
cell growth promotion (SK-MEL-2 (Melanoma)): 94.51%
cell growth promotion (HT29 (Colon cancer)): 87.83%
inhibition at 10 µM (HT29 (Colon cancer)): 12.2%
cell growth promotion (SK-MEL-28 (Melanoma)): 114.17%
cell growth promotion [7]: 69.51%
inhibition at 10 µM [7, 10]: 30.5%
cell growth promotion [8]: 78.06%
inhibition at 10 µM [8, 10]: 21.9%
cell growth promotion (KM12 (Colon cancer)): 97.48%
cell growth promotion (RPMI-8226 (Leukaemia)): 88.98%
cell growth promotion (SW-620 (Colon cancer)): 94.11%
cell growth promotion (A498 (Renal cancer)): 93.08%
cell growth promotion (SNB-19 (CNS cancer)): 95.34%
cell growth promotion (HS 578T (Breast cancer)): 91.67%
cell growth promotion (MCF7 (Breast cancer)): 93.05%
cell growth promotion (SF-268 (CNS cancer)): 100.24%
cell growth promotion (SNB-75 (CNS cancer)): 90.58%
cell growth promotion (K-562 (Leukaemia)): 78.12%
inhibition at 10 µM (K-562 (Leukaemia)): 21.9%
cell growth promotion (OVCAR-5 (Ovarian cancer)): 113.63%
cell growth promotion [9]: 101.50%

COc1cc(C2CC(c3ccc(N4CCNCC4)cc3)=NN2)ccc1F (stereo not drawn) [VIb, 1-(4-(5-(4-Fluoro-3-methoxyphenyl)-4,5-dihydro-1H-pyrazol-3-yl)phenyl) piperazine]
cell growth promotion (UACC-257 (Melanoma)): 80.93%
cell growth promotion [1]: 89.15%
cell growth promotion (SF-295 (CNS cancer)): 97.70%
cell growth promotion (MDA-MB-435 (Melanoma)): 101.87%
cell growth promotion (OVCAR-3 (Ovarian cancer)): 91.15%
cell growth promotion (SK-MEL-5 (Melanoma)): 80.94%
cell growth promotion (TK-10 (Renal cancer)): 113.60%
cell growth promotion (MALME-3M (Melanoma)): 102.13%
cell growth promotion (OVCAR-4 (Ovarian cancer)): 91.49%
cell growth promotion [2]: 86.01%
cell growth promotion (CAKI-1 (Renal cancer)): 86.62%
cell growth promotion (SN12C (Renal cancer)): 83.08%
cell growth promotion [3]: 95.41%
cell growth promotion (SF-539 (CNS cancer)): 84.21%
cell growth promotion (OVCAR-8 (Ovarian cancer)): 84.09%
cell growth promotion (UO-31 (Renal cancer)): 76.56%
cell growth promotion (ACHN (Renal cancer)): 101.47%
cell growth promotion (CCRF-CEM (Leukaemia)): 69.44%
cell growth promotion (UACC-62 (Melanoma)): 86.00%
cell growth promotion (M14 (Melanoma)): 84.68%
cell growth promotion (MOLT-4 (Leukaemia)): 72.10%
cell growth promotion (RXF 393 (Renal cancer)): 95.32%
cell growth promotion (SR (Leukaemia)): 67.42%
cell growth promotion (PC-3 (Prostate cancer)): 64.23%
cell growth promotion [4]: 104.69%
cell growth promotion (HCC-2998 (Colon cancer)): 104.57%
cell growth promotion (COLO 205 (Colon cancer)): 93.87%
cell growth promotion [5]: 75.49%
cell growth promotion [6]: 96.57%
cell growth promotion (U251 (CNS cancer)): 78.59%
cell growth promotion (SK-MEL-2 (Melanoma)): 87.70%
cell growth promotion (HT29 (Colon cancer)): 20.27%
inhibition at 10 µM (HT29 (Colon cancer)): 79.7%
cell growth promotion (SK-MEL-28 (Melanoma)): 109.51%
cell growth promotion [7]: 66.27%
cell growth promotion [8]: 68.21%
cell growth promotion (KM12 (Colon cancer)): 93.81%
cell growth promotion (RPMI-8226 (Leukaemia)): 72.01%
cell growth promotion (SW-620 (Colon cancer)): 91.67%
cell growth promotion (A498 (Renal cancer)): 90.59%
cell growth promotion (SNB-19 (CNS cancer)): 95.65%
cell growth promotion (HS 578T (Breast cancer)): 84.17%
cell growth promotion (MCF7 (Breast cancer)): 68.65%
cell growth promotion (SF-268 (CNS cancer)): 93.72%
cell growth promotion (SNB-75 (CNS cancer)): 88.85%
cell growth promotion (K-562 (Leukaemia)): 58.92%
inhibition at 10 µM (K-562 (Leukaemia)): 41.1%
cell growth promotion (OVCAR-5 (Ovarian cancer)): 101.51%
cell growth promotion [9]: 95.16%
